Source: patent publication US12630502B2, “Compounds, compositions and polymer films” (Fujifilm Manufacturing Europe B.V., priority 2020, dated 2026)
Structures can show the parent of a compound that is named as a salt.

Experiment: Solubility in water at 40° C. (visual or UV-spectrometry)
Format: physicochemical
Conditions: kept overnight, 500 ppm 4OH-TEMPO
Description: The solubility of the compounds of Formula (I) was determined visually or by UV-spectrometry. For each compound of Formula (I), three solutions were prepared at 40° C.: one solution at 30 wt %, one solution at 60 wt %, and one solution at 70 wt %. 500 ppm 4OH-TEMPO was included in all three solutions to prevent premature polymerisation. The solutions were kept in a water bath of 40° C. overnight and centrifuged prior inspection. UV spectra were recorded in a Cary™ 100 UV-visible spectrophotometer from Agilent Technologies using a 1 mm path length quartz cuvette.

| Compound | Solubility in water at 40° C. |
| --- | --- |
| C=Cc1ccc(S(=O)(=O)[N-]S(=O)(=O)c2cccc(S(=O)(=O)[N-]S(=O)(=O)c3ccc(C=C)cc3)c2)cc1.[Li+].[Li+] [XL-2, 1,3-[N-(ethenylphenylsulphonyl)benzenesulphonamide], dilithium salt] | >70 wt % |
| C=Cc1ccc(S(=O)(=O)NS(=O)(=O)c2ccc(C=C)cc2)cc1 [XL-B, Benzenesulphonamide, 4-ethenyl-N-[(4-ethenylphenyl)sulphonyl]-, lithium salt] | 56 wt % |
| C=Cc1ccc(S(=O)(=O)NS(C)(=O)=O)c(C=C)c1 [XL-D, Benzenesulphonamide, 2,4-diethenyl-N-(methylsulphonyl)-, lithium salt] | >70 wt % |
| Divinylbenzenesulphonate, Sodium salt [DVBS-Na, reference compound] | 8 wt % |
